Measurements: PMC12528448, “Resistance to CDK7 inhibitors directed by acquired mutation of a conserved residue in cancer cells” (The EMBO Journal, 2025)
Where “and” joins values, the source holds several entries; their conditions need not be identical. Equal values may be shown once.

Assays:
CDK7-D97N = target: T1, CDK7-D97N (Homo sapiens, UniProt P50613, D97N); test: NanoBRET Target Engagement assay, K-10 tracer displacement in HEK293 cells; assay type: binding; conditions: for % Occupacy: CDK7 D97N, replicates N1-N3
T1 construct: expressed in transfected cells; host or cells: HEK293
T1 sequence (P50613 whole entry D97N): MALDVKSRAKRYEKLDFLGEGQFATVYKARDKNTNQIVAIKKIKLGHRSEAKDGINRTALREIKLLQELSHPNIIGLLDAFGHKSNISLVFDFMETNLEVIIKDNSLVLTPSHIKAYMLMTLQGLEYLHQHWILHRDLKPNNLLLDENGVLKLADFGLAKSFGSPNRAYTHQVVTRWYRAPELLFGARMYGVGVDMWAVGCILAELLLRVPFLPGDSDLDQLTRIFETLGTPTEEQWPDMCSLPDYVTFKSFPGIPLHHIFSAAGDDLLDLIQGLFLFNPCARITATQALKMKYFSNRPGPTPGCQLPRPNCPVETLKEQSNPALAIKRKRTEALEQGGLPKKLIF
Outline: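 BRET ratio taken as acceptor 590–610 nm over donor 410–490 nm ×1000. EC50 obtained by nonlinear regression; occupancy from tracer and vehicle controls.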

22Rv1 cells = test: IncuCyte confluency growth, 22Rv1; assay type: cell-based, human
Experimental: (§1) To determine the IC50 of drug treatments on growth, cells were seeded in 96-well culture plates. Two days after seeding, the cells were treated with increasing concentrations of drugs and incubated for 4 days. Cell number was determined using the SRB assay (Skehan et al, [1990]), and IC50 values were calculated using non-linear regression curve fitting in GraphPad Prism v10. For all other growth experiments, cells were seeded into 96-well plates, and appropriate drugs were added 2 days after seeding. Cells were then incubated in an IncuCyte Zoom live-cell imager, with cell confluency measured every 6 h. Cell doubling times were determined by non-linear curve fitting (exponential growth equation) in GraphPad Prism v10.

22Rv1-SamR cells = test: IncuCyte confluency growth, 22Rv1-SamR; assay type: cell-based, human; conditions: for % Confluency: 80nM SY1365, 22Rv1-SamR
Experimental: as §1

[1] = system: 22Rv1 homozygous CDK7-D97N CL3 cells; test: IncuCyte confluency growth, 22Rv1 homozygous CDK7-D97N CL3; assay type: cell-based, human
Experimental: as §1

[2] = system: PolII and CDK2 phosphorylation in MCF7-CDK7-D97N cells; test: Immunoblotting of CDK7 targets, MCF7-CDK7-D97N; assay type: cell-based, human; conditions: 24 h, immunoblot
Experimental: Whole-cell lysates were prepared in RIPA buffer (Sigma-Aldrich), supplemented with protease and phosphatase inhibitor cocktails (Roche). Protein sample concentrations were determined using the Pierce BCA Protein Assay kit (ThermoFisher Scientific). […] PolII CTD phosphorylation antibodies (P-Ser2 (ab5095) and P-Ser5 (ab5131), used at 1:10,000 dilution), as well as total PolII (ab817; 1:2000 dilution) and β-actin (ab6276; 1:100,000 dilution) were purchased from Abcam.

With `CN(C)C/C=C/C(=O)Nc1ccc(C(=O)N[C@@]2(C)CCC[C@@H](Nc3ncc(Cl)c(-c4c[nH]c5ccccc45)n3)C2)nc1` [SY-1365] the EC50 (CDK7-D97N; CDK7-D97N, K-10 0.5 µM, HEK293) was 31.3 nM, the “% Occupacy” value (CDK7-D97N; Log10 Conc. (nM) 0.09) was 2.93% and 3.17% and -0.97% and the “% Occupacy” value (CDK7-D97N; Log10 Conc. (nM) 0.69) was 10.17% and 10.16% and 4.41%. The “% Occupacy” value (CDK7-D97N; Log10 Conc. (nM) 1.29) was 36.69% and 35.14% and 27.40%, the “% Occupacy” value (CDK7-D97N; Log10 Conc. (nM) 1.89) was 86.86% and 82.26% and 69.03% and the “% Occupacy” value (CDK7-D97N; Log10 Conc. (nM) 2.49) was 95.98% and 95.66% and 91.52%. The “% Occupacy” value (CDK7-D97N; Log10 Conc. (nM) 3.10) was 98.50% and 98.01% and 96.95%, the “% Occupacy” value (CDK7-D97N; Log10 Conc. (nM) 3.70) was 100.42% and 100.34% and 99.95% and the “% Occupacy” value (CDK7-D97N; Log10 Conc. (nM) 4.30) was 97.72% and 96.80% and 96.75%. For the same compound, the “% Occupacy” value (CDK7-D97N; Log10 Conc. (nM) -0.52) was -0.36% and 0.88% and 0.71%, the “% Occupacy” value (CDK7-D97N; Log10 Conc. (nM) -1.12) was 3.66% and 1.72% and -0.86% and the “% Occupacy” value (CDK7-D97N; Log10 Conc. (nM) -1.72) was 3.68% and 0.83% and -1.37%. For the same compound, the “Difference in EC50 values for mutant and WT CDK7” value (CDK7-D97N; NanoBRET) was “no significant difference”, the “% Confluency” value (22Rv1 cells; 80nM SY1365, 22Rv1, 0 hours) was 11.42% and 19.49% and 18.80% and the “% Confluency” value (22Rv1 cells; 80nM SY1365, 22Rv1, 6 hours) was 11.80% and 20.40% and 19.49%. The “% Confluency” value (22Rv1 cells; 80nM SY1365, 22Rv1, 12 hours) was 10.21% and 17.43% and 16.82%, the “% Confluency” value (22Rv1 cells; 80nM SY1365, 22Rv1, 18 hours) was 9.13% and 15.66% and 15.15% and the “% Confluency” value (22Rv1 cells; 80nM SY1365, 22Rv1, 24 hours) was 8.54% and 14.77% and 14.37%. For the same compound, the “% Confluency” value (22Rv1 cells; 80nM SY1365, 22Rv1, 30 hours) was 8.21% and 14.28% and 13.85%, the “% Confluency” value (22Rv1 cells; 80nM SY1365, 22Rv1, 36 hours) was 8.00% and 13.79% and 13.42% and the “% Confluency” value (22Rv1 cells; 80nM SY1365, 22Rv1, 42 hours) was 7.74% and 13.41% and 13.03%. For the same compound, the “% Confluency” value (22Rv1 cells; 80nM SY1365, 22Rv1, 48 hours) was 7.60% and 13.19% and 12.71%, the “% Confluency” value (22Rv1 cells; 80nM SY1365, 22Rv1, 54 hours) was 7.42% and 12.81% and 12.32% and the “% Confluency” value (22Rv1 cells; 80nM SY1365, 22Rv1, 60 hours) was 7.30% and 12.50% and 12.14%. The “% Confluency” value (22Rv1 cells; 80nM SY1365, 22Rv1, 66 hours) was 7.19% and 12.29% and 11.85%, the “% Confluency” value (22Rv1 cells; 80nM SY1365, 22Rv1, 72 hours) was 7.07% and 12.06% and 11.63% and the “% Confluency” value (22Rv1 cells; 80nM SY1365, 22Rv1, 78 hours) was 6.98% and 11.84% and 11.40%. The “% Confluency” value (22Rv1 cells; 80nM SY1365, 22Rv1, 84 hours) was 6.88% and 11.65% and 11.26%, the “% Confluency” value (22Rv1 cells; 80nM SY1365, 22Rv1, 90 hours) was 6.85% and 11.59% and 11.21% and the “% Confluency” value (22Rv1 cells; 80nM SY1365, 22Rv1, 96 hours) was 6.73% and 11.35% and 10.98%. For the same compound, the “% Confluency” value (22Rv1 cells; 80nM SY1365, 22Rv1, 114 hours) was 6.60% and 11.05% and 10.79%, the “% Confluency” value (22Rv1 cells; 80nM SY1365, 22Rv1, 120 hours) was 6.58% and 10.92% and 10.70% and the “% Confluency” value (22Rv1 cells; 80nM SY1365, 22Rv1, 126 hours) was 6.55% and 10.80% and 10.69%. The “% Confluency” value (22Rv1 cells; 80nM SY1365, 22Rv1, 132 hours) was 6.55% and 10.73% and 10.58%, the “% Confluency” value (22Rv1 cells; 80nM SY1365, 22Rv1, 138 hours) was 6.46% and 10.70% and 10.57% and the “% Confluency” value (22Rv1 cells; 80nM SY1365, 22Rv1, 144 hours) was 6.45% and 10.59% and 10.48%. The “Growth inhibition over time” value (22Rv1 cells; 22Rv1, IncuCyte confluency) was “potently growth inhibited”, the “% Confluency” value (22Rv1-SamR cells; 0 hours) was 10.34% and 15.03% and 14.87% and the “% Confluency” value (22Rv1-SamR cells; 6 hours) was 9.52% and 13.73% and 13.78%. The “% Confluency” value (22Rv1-SamR cells; 12 hours) was 7.18% and 10.14% and 10.08%, the “% Confluency” value (22Rv1-SamR cells; 18 hours) was 6.46% and 9.11% and 8.97% and the “% Confluency” value (22Rv1-SamR cells; 24 hours) was 6.42% and 8.94% and 8.84%. The “% Confluency” value (22Rv1-SamR cells; 30 hours) was 6.40% and 8.87% and 8.89%, the “% Confluency” value (22Rv1-SamR cells; 36 hours) was 6.41% and 8.74% and 8.80% and the “% Confluency” value (22Rv1-SamR cells; 42 hours) was 6.26% and 8.57% and 8.60%. For the same compound, the “% Confluency” value (22Rv1-SamR cells; 48 hours) was 6.09% and 8.40% and 8.37%, the “% Confluency” value (22Rv1-SamR cells; 54 hours) was 5.90% and 8.18% and 8.12% and the “% Confluency” value (22Rv1-SamR cells; 60 hours) was 5.76% and 7.96% and 7.93%. The “% Confluency” value (22Rv1-SamR cells; 66 hours) was 5.65% and 7.83% and 7.79%, the “% Confluency” value (22Rv1-SamR cells; 72 hours) was 5.56% and 7.64% and 7.59% and the “% Confluency” value (22Rv1-SamR cells; 78 hours) was 5.44% and 7.53%. For the same compound, the “% Confluency” value (22Rv1-SamR cells; 84 hours) was 5.34% and 7.42% and 7.40%, the “% Confluency” value (22Rv1-SamR cells; 90 hours) was 5.24% and 7.29% and 7.32% and the “% Confluency” value (22Rv1-SamR cells; 96 hours) was 5.21% and 7.20% and 7.25%. For the same compound, the “% Confluency” value (22Rv1-SamR cells; 114 hours) was 5.05% and 7.01% and 7.04%, the “% Confluency” value (22Rv1-SamR cells; 120 hours) was 5.01% and 6.93% and 6.98% and the “% Confluency” value (22Rv1-SamR cells; 126 hours) was 4.98% and 6.86% and 6.94%. The “% Confluency” value (22Rv1-SamR cells; 132 hours) was 4.95% and 6.82% and 6.86%, the “% Confluency” value (22Rv1-SamR cells; 138 hours) was 4.94% and 6.80% and 6.88% and the “% Confluency” value (22Rv1-SamR cells; 144 hours) was 4.87% and 6.78% and 6.83%. The “Growth inhibition over time” value (22Rv1-SamR cells; 22Rv1-SamR, IncuCyte confluency, samuraciclib at 1.35 µM) was “potently growth inhibited”, the “% Confluency” value ([1]; 80nM SY1365, CDK7D97N CL3, 0 hours) was 10.64% and 16.42% and 15.20% and the “% Confluency” value ([1]; 80nM SY1365, CDK7D97N CL3, 6 hours) was 12.17% and 18.19% and 16.81%. The “% Confluency” value ([1]; 80nM SY1365, CDK7D97N CL3, 12 hours) was 12.25% and 16.05% and 14.62%, the “% Confluency” value ([1]; 80nM SY1365, CDK7D97N CL3, 18 hours) was 11.21% and 14.01% and 12.61% and the “% Confluency” value ([1]; 80nM SY1365, CDK7D97N CL3, 24 hours) was 9.91% and 12.68% and 11.43%. The “% Confluency” value ([1]; 80nM SY1365, CDK7D97N CL3, 30 hours) was 9.03% and 11.88% and 10.71%, the “% Confluency” value ([1]; 80nM SY1365, CDK7D97N CL3, 36 hours) was 8.55% and 11.34% and 10.26% and the “% Confluency” value ([1]; 80nM SY1365, CDK7D97N CL3, 42 hours) was 8.35% and 11.02% and 9.94%. For the same compound, the “% Confluency” value ([1]; 80nM SY1365, CDK7D97N CL3, 48 hours) was 8.30% and 10.78% and 9.70%, the “% Confluency” value ([1]; 80nM SY1365, CDK7D97N CL3, 54 hours) was 8.19% and 10.49% and 9.48% and the “% Confluency” value ([1]; 80nM SY1365, CDK7D97N CL3, 60 hours) was 8.11% and 10.33% and 9.30%. The “% Confluency” value ([1]; 80nM SY1365, CDK7D97N CL3, 66 hours) was 8.06% and 10.08% and 9.17%, the “% Confluency” value ([1]; 80nM SY1365, CDK7D97N CL3, 72 hours) was 8.00% and 9.91% and 9.02% and the “% Confluency” value ([1]; 80nM SY1365, CDK7D97N CL3, 78 hours) was 7.89% and 9.76% and 8.94%. For the same compound, the “% Confluency” value ([1]; 80nM SY1365, CDK7D97N CL3, 84 hours) was 7.83% and 9.66% and 8.79%, the “% Confluency” value ([1]; 80nM SY1365, CDK7D97N CL3, 90 hours) was 7.73% and 9.55% and 8.72% and the “% Confluency” value ([1]; 80nM SY1365, CDK7D97N CL3, 96 hours) was 7.64% and 9.51% and 8.65%. For the same compound, the “% Confluency” value ([1]; 80nM SY1365, CDK7D97N CL3, 114 hours) was 7.42% and 9.25% and 8.52%, the “% Confluency” value ([1]; 80nM SY1365, CDK7D97N CL3, 120 hours) was 7.37% and 9.31% and 8.48% and the “% Confluency” value ([1]; 80nM SY1365, CDK7D97N CL3, 126 hours) was 7.26% and 9.19% and 8.45%. The “% Confluency” value ([1]; 80nM SY1365, CDK7D97N CL3, 132 hours) was 7.22% and 9.15% and 8.43%, the “% Confluency” value ([1]; 80nM SY1365, CDK7D97N CL3, 138 hours) was 7.16% and 9.12% and 8.33% and the “% Confluency” value ([1]; 80nM SY1365, CDK7D97N CL3, 144 hours) was 7.11% and 8.98% and 8.32%. The “Growth inhibition over time” value ([1]; 22Rv1 homozygous CDK7-D97N clone, IncuCyte confluency, samuraciclib at 1.35 µM) was “potently growth inhibited” and the “Inhibition of PolII and CDK2 phosphorylation” value [2] was “maintained”.
